This note sets out measurements from ChEMBL document CHEMBL1148982, “Novel cytotoxic thiodiketopiperazine derivatives from a Tilachlidium sp” (2004).

The structures appear in SMILES notation.

In this test the test system is P388. The experiment in a line: Cytotoxicity against mouse P388 cells after 1 to 11 days by MTT assay. Type of test: functional. The settings on record: read-out: ID50 (the source's name). In general terms: Formazan colour is commonly taken as a measure of viable cells.
For the compound `CN1C(=O)[C@]23SSS[C@]1(CO)C(=O)N2[C@H]1Nc2ccccc2[C@@]1(c1c[nH]c2ccccc12)[C@@H]3O`, the IC50 stood at 250 nM.

As for `CN1C(=O)[C@]23SS[C@]1(CO)C(=O)N2[C@H]1Nc2ccccc2[C@@]1(c1c[nH]c2ccccc12)[C@@H]3O` [T988 C], the IC50 is 560 nM. Then `CS[C@@]1(CO)C(=O)N2[C@H]3Nc4ccccc4[C@@]3(c3c[nH]c4ccccc34)[C@H](O)[C@]2(SC)C(=O)N1C` [T988 B], with 2180 nM.
